Source: patent US9738902B2, “Modified PYR/PYL receptors activated by ligands” (priority 2013, dated 2017)

Columns and labels:
[1] = target: T1, GST-ABI1 with 6×-His-PYR1^MANDI (Arabidopsis thaliana, UniProt O49686, F108A/F159L/K59R/S122G/V81I/Y58H); assay: PP2C enzyme inhibition assay (4-methylumbelliferyl-phosphate); format: biochemical; conditions: 100 nM 6×-His-PYR1^MANDI, 50 nM GST-PP2C; read-out: IC50, mandipropamid mediated inhibition of ABI1
T1 construct: made in house; host or cells: E. coli BL21[DE3]pLysS (receptor)
Experimental: (§1) We next characterized the effects of recombinant PYR1^MANDI on PP2C activity using the fluorogenic substrate 4-methylumbelliferyl-phosphate. Recombinant receptor and PP2C proteins were prepared as described above and used to examine PP2C inactivation in response to mandipropamid or ABA. Enzyme inhibition assays were conducted using the following assay conditions: 100 nM 6×-His-PYR1^MANDI, 50 nM GST-PP2C, 100 mM Tris-OAc (pH 7.9), 100 mM NaCl, 1 mM MnCl2, 1% β-mercaptoethanol. […] The three ABA-regulated clade A PP2Cs, GST-HAB1, GST-ABI1 and GST-ABI2 were each tested under the same enzyme conditions in separate reactions. The assays were conducted at a variety of mandipropamid or ABA concentrations so that IC50 values could be determined. […] Thus, the PYR1^MANDI receptor is highly sensitive to activation by mandipropamid and interacts with multiple clade A PP2Cs in response to mandipropamid. This high level of sensitivity is consistent with the yeast two hybrid results described above in which a detectable interaction between PYR1^MANDI and HAB1 could be observed at concentrations as low as 2 nM (see Table 1). We note that the yeast two hybrid reporter systems requires only a small percentage of PYR1^MANDI receptors to bind HAB1 for an interaction signal and is therefore a potentially more sensitive indicator than in vitro assays. […] Thus these in vitro assays confirm that PYR1^MANDI is selectively activated by mandipropamid.

[2] = target: T2, GST-HAB1 with 6×-His-PYR1^MANDI (Arabidopsis thaliana, UniProt O49686, F108A/F159L/K59R/S122G/V81I/Y58H); assay: as above; format: biochemical; conditions: 100 nM 6×-His-PYR1^MANDI, 50 nM GST-PP2C; read-out: IC50, mandipropamid mediated inhibition of HAB1
T2 construct: made in house; host or cells: E. coli BL21[DE3]pLysS (receptor)
Experimental: as §1

[3] = target: T3, GST-ABI2 with 6×-His-PYR1^MANDI (Arabidopsis thaliana, UniProt O49686, F108A/F159L/K59R/S122G/V81I/Y58H); assay: as above; format: biochemical; conditions: 100 nM 6×-His-PYR1^MANDI, 50 nM GST-PP2C; read-out: IC50, mandipropamid mediated inhibition of ABI2
T3 construct: made in house; host or cells: E. coli BL21[DE3]pLysS (receptor)
Experimental: as §1

[4] = tested on: MDP1 and MDP2 transgenic genotypes; assay: root growth inhibition assay; format: in vivo, Arabidopsis; conditions: MDP1 and MDP2, 72 hours after transfer
Source text: (§2) Given the relatively high mandipropamid sensitivity of the MDP1 and MDP2 transgenic lines, these lines were subjected to further physiological characterization. One of ABA's physiological effects is to inhibit root growth. Mandipropamid should therefore inhibit root growth in the MDP1 and MDP2 transgenic lines, but not wild type, if it is successfully activating this ABA response. To test this, seeds of the wild type, PYR1-OX, MDP1 and MDP2 genotypes were surface sterilized in bleach and plated on to 0.7% agar petri plates containing ½ MS salts and 0.5% sucrose. After 4 days of stratification at 4° C., the plates were transferred to a growth chamber operating on a 16-hour day length cycle and allowed to germinate for 24 hours and then transferred to petri plates (0.7% agar containing ½ MS salts and 0.5% sucrose) supplemented with differing concentrations of mandipropamid. These plates were then grown vertically in a growth chamber operating on a 16-hour day length cycle. The amount of root growth after transfer was measured 72-hours later after transfer.

wild type = assay: root growth inhibition assay; format: in vivo, Arabidopsis; conditions: 72 hours after transfer
Source text: as §2

PYR1-OX = assay: root growth inhibition assay; format: in vivo, Arabidopsis; conditions: 72 hours after transfer
Source text: as §2

[5] = target: T4, PYR1 Y58H K59R F108A S122G (Arabidopsis thaliana, UniProt O49686, F108A/K59R/S122G/Y58H); assay: Y2H Recombination Mutagenesis (HAB1, X-gal); format: cell-based
T4 construct: expressed in transfected cells; host or cells: S. cerevisiae Y190 pACT-HAB1
Source text: As a second approach, we used recombination-based mutagenesis to search for mutant combinations that enhance the sensitivity of PYR1^K59R,F108A,S122G to mandipropamid. Nucleotide excision and exchange technology (NExT) (Müller et al., 2005) was used to mutagenize an equal amount of PYR1^K59R,F108A,S122G template with an equal amount of template DNA that was made by pooling plasmid DNA from the NNK plasmid libraries made above for each of the 23 ligand-contacting residues in the PYR1^K59R,F108A,S122G backbone. Thus, PYR1^K59R,F108A,S122G was mutagenized with recombination-based mutagenesis using a library of pocket site mutations. An ˜200,000 member library of mutagenized clones was generated and was transformed into the MAV99 pACT-HAB1 reporter strain. Selections were conducted on plates containing 0.5 μM mandipropamid and appropriate nutrients and amino acids. To establish if strain growth was ligand dependent, the positive clones were subsequently tested for growth on selective plates lacking mandipropamid. Next, plasmids were isolated from strains showing ligand-dependent growth and the mandipropamid sensitivity of mutant receptors characterized using X-gal staining (after transformation into the into the Y190 pACT-HAB1 reporter strain). […]

T2 sequence (Q9CAJ0 23-511): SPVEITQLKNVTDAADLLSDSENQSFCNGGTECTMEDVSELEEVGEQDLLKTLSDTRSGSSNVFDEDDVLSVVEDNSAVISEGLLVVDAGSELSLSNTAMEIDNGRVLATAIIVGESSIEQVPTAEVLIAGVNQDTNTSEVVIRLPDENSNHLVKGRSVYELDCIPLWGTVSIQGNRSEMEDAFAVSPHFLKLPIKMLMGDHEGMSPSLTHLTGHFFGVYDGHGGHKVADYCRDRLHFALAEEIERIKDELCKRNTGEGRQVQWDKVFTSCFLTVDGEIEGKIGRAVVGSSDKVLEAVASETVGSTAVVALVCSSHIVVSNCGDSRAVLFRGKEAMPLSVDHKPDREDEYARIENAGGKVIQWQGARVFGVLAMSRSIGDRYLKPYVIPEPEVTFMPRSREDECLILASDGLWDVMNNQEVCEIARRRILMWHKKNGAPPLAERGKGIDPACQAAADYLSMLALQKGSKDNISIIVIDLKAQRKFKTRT
T2 sequence (O49686 whole entry Y58H/K59R/V81I/F108A/S122G/F159L): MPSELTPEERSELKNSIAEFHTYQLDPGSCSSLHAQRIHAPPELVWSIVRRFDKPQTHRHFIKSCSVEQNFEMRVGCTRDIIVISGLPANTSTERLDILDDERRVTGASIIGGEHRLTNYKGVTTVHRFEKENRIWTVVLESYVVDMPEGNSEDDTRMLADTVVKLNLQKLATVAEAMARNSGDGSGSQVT
T3 sequence (O49686 whole entry Y58H/K59R/V81I/F108A/S122G/F159L): as above
T3 sequence (O04719 whole entry partner): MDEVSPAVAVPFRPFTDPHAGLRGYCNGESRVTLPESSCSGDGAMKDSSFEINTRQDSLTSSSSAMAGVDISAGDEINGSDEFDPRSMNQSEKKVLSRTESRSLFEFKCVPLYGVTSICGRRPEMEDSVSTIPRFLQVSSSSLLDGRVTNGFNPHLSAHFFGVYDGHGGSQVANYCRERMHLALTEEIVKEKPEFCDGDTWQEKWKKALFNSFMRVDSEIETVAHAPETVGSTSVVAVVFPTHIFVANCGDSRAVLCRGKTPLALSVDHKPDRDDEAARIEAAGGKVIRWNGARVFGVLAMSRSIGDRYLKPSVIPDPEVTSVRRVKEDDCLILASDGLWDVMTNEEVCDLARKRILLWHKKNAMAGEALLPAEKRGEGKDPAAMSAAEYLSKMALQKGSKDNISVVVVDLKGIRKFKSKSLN
T1 sequence (O49686 whole entry Y58H/K59R/V81I/F108A/S122G/F159L): as the sequence (O49686 whole entry Y58H/K59R/V81I/F108A/S122G/F159L) above
T1 sequence (P49597 whole entry partner): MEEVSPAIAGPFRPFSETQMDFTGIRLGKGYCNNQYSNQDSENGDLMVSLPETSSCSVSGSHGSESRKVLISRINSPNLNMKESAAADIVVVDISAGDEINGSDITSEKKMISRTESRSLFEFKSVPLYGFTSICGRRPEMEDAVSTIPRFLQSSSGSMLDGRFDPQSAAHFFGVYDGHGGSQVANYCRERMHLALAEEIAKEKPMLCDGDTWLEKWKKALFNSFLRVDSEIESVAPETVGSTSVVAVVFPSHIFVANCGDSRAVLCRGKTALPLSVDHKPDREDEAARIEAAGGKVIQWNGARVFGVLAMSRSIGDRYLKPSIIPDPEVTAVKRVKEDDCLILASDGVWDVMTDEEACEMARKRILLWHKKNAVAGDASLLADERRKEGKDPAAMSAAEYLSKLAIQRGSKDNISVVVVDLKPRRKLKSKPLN
T4 sequence (O49686 whole entry Y58H/K59R/F108A/S122G): as the sequence (O49686 whole entry Y58H/K59R/V81I/F108A/S122G/F159L) above, with I81V, L159F counted along it
T4 sequence (Q9CAJ0 23-511 partner): as the sequence (Q9CAJ0 23-511) above

C#CCOc1ccc(CCNC(=O)C(OCC#C)c2ccc(Cl)cc2)cc1OC (stereo not shown) [Mandipropamid, mandipropamid] gave an IC50 [1] of 26.8 nM, an IC50 [2] of 32.2 nM and an IC50 [3] of 75.5 nM. For the same molecule, the root growth [4] was “inhibited”, the root growth (wild type) was “negligible inhibition” and the root growth (PYR1-OX) was “negligible inhibition”. It also gave a Threshold [5] of 0.25 µM.
